Assay results published in the Deep4Chem optical property database.
Each block holds one compound with its values, some of them ahead of it.

Experiment: solvent given as SMILES

- absorption maximum (in C1CCOC1): 321 nm
SMILES: N#Cc1ccc(C=C(c2ccccc2)c2ccccc2)cc1

- absorption maximum (in ClCCl): 301 nm
SMILES: C[Si](C)(C)c1ccc(-c2nc3ccccc3n2-c2ccccc2)cc1

- absorption maximum (in ClCCl): 358 nm
SMILES: CC(=O)c1ccc(-c2cccc3ncc(-c4ccccc4)n23)cc1

- absorption maximum (in C1CCCCC1): 420 nm
- absorption maximum (in CC#N): 432 nm
- absorption maximum (in CCO): 432 nm
SMILES: COc1cccc2c1-c1ccccc1C2=O

- absorption maximum (in CS(C)=O): 414 nm
- absorption maximum (in ClC(Cl)Cl): 398 nm
SMILES: CCCCn1cc(/C=C/c2cc(=O)oc3cc(C)ccc23)c2ccccc21

- absorption maximum (in CCO): 339 nm
SMILES: Cc1cc(=O)oc2cc3cc(-c4cn(Cc5ccccc5)nn4)ccc3cc12

- absorption maximum (in C1CCCCC1): 315 nm
SMILES: C[Si](C)(C)c1ccc(C#N)c2ccccc12

- absorption maximum (in ClCCl): 465 nm
SMILES: F[B-]1(F)N(c2ccccc2)c2cccc3ccc4ccc[n+]1c4c23

- absorption maximum (in ClCCl): 379 nm
SMILES: CCN(CC)c1ccc2c(c1)oc(=O)c1cc3cnn(-c4ccccc4)c3nc12

- absorption maximum (in CS(C)=O): 360 nm
SMILES: N#CC1=C(N)n2c(=O)c3ccccc3c(=O)n2C1c1ccccc1 (centres undefined)

- absorption maximum (in CCO): 330 nm
SMILES: O=C(O)CCNc1cccc2ccccc12

- absorption maximum (in C1CCCCC1): 307 nm
SMILES: COC(=O)c1noc(-c2ccccc2)c1Br

- absorption maximum (in CC#N): 322 nm
- absorption maximum (in CO): 324 nm
SMILES: FC(F)(F)c1ccc2c(c1)Nc1ccccc1S2

- absorption maximum (in C1CCCCC1): 412 nm
- absorption maximum (in C1CCOC1): 394 nm
- absorption maximum (in C1COCCO1): 394 nm
- absorption maximum (in CC#N): 384 nm
- absorption maximum (in CCCCCC): 412 nm
- absorption maximum (in CO): 382 nm
- absorption maximum (in ClC(Cl)Cl): 369 nm
SMILES: F[B-]1(F)n2c(-c3ccccc3)cnc2-c2cccc[n+]21

- absorption maximum (in c1ccccc1): 344 nm
SMILES: O=c1oc2ccccc2nc1-c1ccc(Cl)cc1

- absorption maximum (in ClCCl): 402 nm
SMILES: Clc1ccc2nc3cc4ccccc4cc3c(-c3ccccc3)c2c1

- absorption maximum (in CC#N): 404 nm
SMILES: CCOC(=O)c1c2c3c(ccc(Br)c3c3cc4ccccc4cc13)N(C)C2=O

- absorption maximum (in O): 438 nm
SMILES: CC[n+]1c(-c2ccccc2)c2cc(NC(=O)NCC[NH3+])ccc2c2ccc(NC(=O)NCC[NH3+])cc21

Further lines, the compound ahead of its results:

SMILES: O=C1/C(=C/C=C/c2cc3c4c(c2)CCCN4CCC3)CC/C1=C\C=C\c1cc2c3c(c1)CCCN3CCC2
- absorption maximum (in CC#N): 510 nm
- absorption maximum (in CC(C)=O): 515 nm
- absorption maximum (in CC(C)O): 535 nm
- absorption maximum (in CCCCCC): 457 nm
- absorption maximum (in CCCCO): 543 nm
- absorption maximum (in CCCO): 541 nm
- absorption maximum (in CCO): 538 nm
- absorption maximum (in CCOC(C)=O): 495 nm
- absorption maximum (in CCOCC): 494 nm
- absorption maximum (in CN(C)C=O): 532 nm
- absorption maximum (in CO): 523 nm
- absorption maximum (in CS(C)=O): 539 nm
- absorption maximum (in Cc1ccccc1): 505 nm
- absorption maximum (in ClCCl): 529 nm
- absorption maximum (in OCC(F)(F)F): 584 nm
- absorption maximum (in S=C=S): 530 nm
- absorption maximum (in c1ccccc1): 510 nm
- absorption maximum (in c1ccncc1): 534 nm

SMILES: COC(=O)/C=C/c1sc(-c2ccc(N(C)C)cc2)cc1N
- absorption maximum (in CC#N): 419 nm

SMILES: CCOC(=O)/C(C#N)=C\c1ccc2c(c1)c1ccccc1n2-c1ccc(C)cc1
- absorption maximum (in C1CCOC1): 390 nm
- absorption maximum (in CC#N): 389 nm
- absorption maximum (in CC(C)=O): 388 nm
- absorption maximum (in CCOC(C)=O): 400 nm
- absorption maximum (in CO): 391 nm
- absorption maximum (in CS(C)=O): 397 nm
- absorption maximum (in Cc1ccccc1): 396 nm
- absorption maximum (in ClC(Cl)Cl): 389 nm

SMILES: CCOC(=O)c1ccccc1-c1c2ccc(=[N+](CC)CC)cc-2oc2c1c(=O)oc1cc3c(cc12)CCCN3C
- absorption maximum (in CCO): 602 nm
- absorption maximum (in ClC(Cl)Cl): 608 nm
- absorption maximum (in O): 602 nm

SMILES: COc1cc(-c2nnc(-c3ccc4ccc5cccc6ccc3c4c56)o2)cc(OC)c1OC
- absorption maximum (in C1CCOC1): 393 nm
- absorption maximum (in CC1CCCCC1): 392 nm
- absorption maximum (in CC#N): 391 nm
- absorption maximum (in CCCCCC): 392 nm
- absorption maximum (in Cc1ccccc1): 396 nm
- absorption maximum (in ClC(Cl)Cl): 396 nm

SMILES: Cc1ccc(C)cc1
- absorption maximum (in C1CCCCC1): 262.88 nm

SMILES: c1ccc(-n2nc(-c3ccc(N4c5ccccc5Sc5ccccc54)cc3)nc2-c2ccccn2)cc1
- absorption maximum (in ClCCl): 329 nm

SMILES: C(S/C=C/c1ccc(/C=C/SC=C2CCCCC2)cc1)=C1CCCCC1
- absorption maximum (in ClCCl): 350 nm

SMILES: CCCCCOc1cc2oc(=O)c3c4ccc(N)cc4c4ccc5cccc6c(c1)c2c3c4c56
- absorption maximum (in C1CCOC1): 471 nm

SMILES: COc1ccc2c(=O)c3c([nH]c2c1)-c1cc(Cl)ccc1NC3(C)C
- absorption maximum (in C1CCOC1): 411 nm
- absorption maximum (in CC#N): 421 nm
- absorption maximum (in CCCCO): 426 nm
- absorption maximum (in CCCO): 426 nm
- absorption maximum (in CCO): 426 nm
- absorption maximum (in CCOC(C)=O): 417 nm
- absorption maximum (in CN(C)C=O): 425 nm
- absorption maximum (in CO): 428 nm
- absorption maximum (in CS(C)=O): 426 nm
- absorption maximum (in Cc1ccccc1): 405 nm
- absorption maximum (in ClC(Cl)(Cl)Cl): 419 nm
- absorption maximum (in ClCCl): 408 nm
- absorption maximum (in O): 405 nm
- absorption maximum (in c1ccccc1): 420 nm

SMILES: N#Cc1c(-n2c3ccc(I)cc3c3cc(I)ccc32)c(C#N)c(-n2c3ccc(I)cc3c3cc(I)ccc32)c(-n2c3ccc(I)cc3c3cc(I)ccc32)c1-n1c2ccc(I)cc2c2cc(I)ccc21
- absorption maximum (in Cc1ccccc1): 384 nm

SMILES: Fc1nc(F)c(F)c(C#Cc2ccccc2C#Cc2c(F)c(F)nc(F)c2F)c1F
- absorption maximum (in CC#N): 300 nm

SMILES: CCC12C(=C3C(=C4c5ccc(-c6ccc(C(C)=O)s6)cc5S(=O)(=O)C41CC)C(F)(F)C(F)(F)C3(F)F)c1ccc(-c3ccc(C(C)=O)s3)cc1S2(=O)=O (centres undefined)
- absorption maximum (in C1COCCO1): 485 nm

SMILES: CCCCN1C(=O)c2ccc3c4ccc5c6c(ccc(c7ccc(c2c37)C1=O)c64)C(=O)N(CCCC)C5=O
- absorption maximum (in ClC(Cl)Cl): 526 nm

SMILES: CN(C)c1ccc(/C=C/c2ccc(-c3cc(-c4ccccn4)nc(-c4ccccn4)c3)cc2)cc1
- absorption maximum (in C1CCOC1): 375 nm
- absorption maximum (in C1COCCO1): 369 nm
- absorption maximum (in CC#N): 379 nm
- absorption maximum (in CCO): 379 nm
- absorption maximum (in ClCCl): 381 nm

SMILES: COc1cc2oc(=O)c3c4ccc(N(C)C)cc4c4ccc5cccc6c(c1)c2c3c4c56
- absorption maximum (in C1CCOC1): 480 nm

SMILES: O=Cc1ccc2ccc3cccc4ccc1c2c34
- absorption maximum (in C1CCOC1): 391 nm
- absorption maximum (in CC#N): 390 nm
- absorption maximum (in CCCCCC): 387 nm
- absorption maximum (in CCO): 389 nm
- absorption maximum (in CN(C)C=O): 390 nm
- absorption maximum (in CO): 389 nm
- absorption maximum (in Cc1ccccc1): 391 nm
- absorption maximum (in ClCCl): 392 nm

SMILES: CCC1=C(C)C(=O)n2c1cc1c(CCC(=O)O)c(C)c(C)n1c2=O
- absorption maximum (in CC#N): 416 nm
- absorption maximum (in CC(C)=O): 415 nm
- absorption maximum (in CO): 421 nm
- absorption maximum (in CS(C)=O): 421 nm
- absorption maximum (in ClC(Cl)Cl): 423 nm
- absorption maximum (in c1ccccc1): 419 nm

SMILES: CN(C)c1ccc(-c2cc(-c3ccc(N(C)C)cc3)ncn2)cc1
- absorption maximum (in ClCCl): 378 nm

SMILES: CCN(CC)c1ccc(/C=C2\CC/C(=C\c3ccc(N(c4ccccc4)c4ccccc4)cc3)C2=C(C#N)C#N)cc1
- absorption maximum (in CN(C)C=O): 579 nm

SMILES: CCCCCn1c2ccc(S(=O)(=O)Cl)cc2c(=O)c2cc(S(=O)(=O)Cl)ccc21
- absorption maximum (in CS(C)=O): 406 nm

SMILES: c1ccc(C2=C(c3ccccc3)c3cccc4c3c(cc3nc5c(-c6ccccc6)ccc(-c6ccccc6)c5nc34)O2)cc1
- absorption maximum (in ClCCl): 503 nm

SMILES: Cc1ccc(/C=N/c2cc(C(C)C)c(O)cc2C)cc1
- absorption maximum (in C1CCCCC1): 341 nm
- absorption maximum (in C1CCOC1): 348 nm
- absorption maximum (in C1COCCO1): 344 nm
- absorption maximum (in CC#N): 337 nm
- absorption maximum (in CC(C)(C)O): 346 nm
- absorption maximum (in CC(C)O): 345 nm
- absorption maximum (in CCCCCC): 340 nm
- absorption maximum (in CCCCO): 345 nm
- absorption maximum (in CCO): 344 nm
- absorption maximum (in CCOC(C)=O): 344 nm
- absorption maximum (in CN(C)C=O): 347 nm
- absorption maximum (in CO): 344 nm
- absorption maximum (in CS(C)=O): 348 nm
- absorption maximum (in ClC(Cl)Cl): 346 nm
- absorption maximum (in ClCCl): 341 nm
- absorption maximum (in O): 346 nm
- absorption maximum (in OCCO): 344 nm

SMILES: O=c1oc2ccccc2cc1-c1nc2ccccc2o1
- absorption maximum (in C1CCOC1): 354 nm
- absorption maximum (in C1COCCO1): 357 nm
- absorption maximum (in CC1CCCCC1): 356 nm
- absorption maximum (in CC#N): 352 nm
- absorption maximum (in CC(C)=O): 352 nm
- absorption maximum (in CC(C)CO): 353 nm
- absorption maximum (in CC(C)O): 354 nm
- absorption maximum (in CCOC(C)=O): 352 nm
- absorption maximum (in CN(C)C=O): 352 nm
- absorption maximum (in CO): 352 nm
- absorption maximum (in CS(C)=O): 354 nm
- absorption maximum (in Cc1ccccc1): 360 nm
- absorption maximum (in ClC(Cl)(Cl)Cl): 360 nm
- absorption maximum (in ClC(Cl)Cl): 356 nm
- absorption maximum (in OCCO): 354 nm

SMILES: CC(C)c1cc(C(C)C)c(B2c3ccccc3Oc3cc(N4c5ccccc5C(C)(C)c5ccccc54)ccc32)c(C(C)C)c1
- absorption maximum (in Cc1ccccc1): 436 nm

SMILES: CC(C)(C)c1cc2c(c(C(C)(C)C)c1)O[B-](F)(F)[n+]1c-2nc(-c2ccccc2)c2cc(Cl)ccc21
- absorption maximum (in Cc1ccccc1): 420 nm

SMILES: CCCCCCCCn1cc(-n2c(-c3cc(-c4nc5ccc(C)cc5n4-c4cn(CCCCCCCC)nn4)cc(-c4nc5ccc(C)cc5n4-c4cn(CCCCCCCC)nn4)c3)nc3ccc(C)cc32)nn1
- absorption maximum (in ClCCl): 309.5 nm

SMILES: O=c1c2cc(C#Cc3ccc(Cl)cc3)ccc2nc2ccc(C#Cc3ccc(Cl)cc3)cn12
- absorption maximum (in ClCCl): 382 nm

SMILES: CC(C)(C)c1cc2ccc3cc(C(C)(C)C)cc4c3c2c(c1)c(=O)n1c4nc2c3cc(C(C)(C)C)cc4ccc5cc(C(C)(C)C)cc(c5c43)c21
- absorption maximum (in C1CCOC1): 395 nm
- absorption maximum (in CC#N): 394 nm
- absorption maximum (in CC(C)=O): 395 nm
- absorption maximum (in CCCCCC): 399 nm
- absorption maximum (in CCO): 395 nm
- absorption maximum (in CCOC(C)=O): 393 nm
- absorption maximum (in CO): 382 nm
- absorption maximum (in CS(C)=O): 394 nm
- absorption maximum (in Cc1ccc(C)cc1): 396 nm
- absorption maximum (in ClC(Cl)(Cl)Cl): 401 nm
- absorption maximum (in ClC(Cl)Cl): 401 nm
- absorption maximum (in c1ccccc1): 395 nm

SMILES: C#CCN1C(=O)/C(=C/c2cc(OC(C)C)ccc2OC(C)C)N=C1C
- absorption maximum (in C1COCCO1): 396 nm
- absorption maximum (in CC#N): 395 nm
- absorption maximum (in CC(C)=O): 394 nm
- absorption maximum (in CCCCCC): 392 nm
- absorption maximum (in CCCCO): 400 nm
- absorption maximum (in CCCO): 400 nm
- absorption maximum (in CCO): 399 nm
- absorption maximum (in CCOC(C)=O): 393 nm
- absorption maximum (in CN(C)C=O): 399 nm
- absorption maximum (in CO): 398 nm
- absorption maximum (in CS(C)=O): 401 nm
